Experimental data taken from patent publication US20050245489A1, “Chromene-containing compounds with anti-tubulin and vascular targeting activity” (priority 2004, published 2005).
Converted amounts (≈) assume the structure as drawn.

Experiments:
[1] = test system: KM20L2 (colon) cancer cell line; assay: In vitro growth inhibition (SRB), KM20L2; format: cell-based, human; conditions: for GI50: Homo sapiens, KM-20L2, 48 hours
Procedure: (§1) Newly prepared compounds were evaluated for cytotoxic activity against a variety of cell lines derived from human tumors using an assay system similar to the National Cancer Institute procedure previously described (Monks et al, J. Natl. Cancer Inst., 1991). Briefly, the cell suspensions, diluted according to the particular cell type and the expected target cell density (5,000-40,000 cells per well based on cell growth characteristics), were added by pipet (100 μl) to 96-well microtiter plates. Inoculates were allowed a preincubation time of 24-28 hours at 37° C. for stabilization. Incubation with the inhibitor compounds lasted for 48 hours in 5% CO2 atmosphere and 100% humidity. Determination of cell growth was performed by in situ fixation of cells, followed by staining with a protein-binding dye sulforhodamine B (SRB), which binds to the basic amino acids of cellular macromolecules. The solubilized stain was measured spectrophotometrically.
(§2) Several compounds were evaluated for cytotoxic activity against […] P388 leukemia cell lines. The effective dose or ED50 value (defined as the effective dosage required to inhibit 50% of cell growth) was measured. These and additional compounds were evaluated in terms of growth inhibitory activity against several other human cancer cell lines including: central nervous system (“CNS”, SF-268), pancreas (BXPC-3), non-small cell lung cancer (“lung-NSC”, NCI-H460), breast (MCF-7), colon (KM20L2), ovarian (OVCAR-3), and prostate (DU-145). The growth inhibition GI50 (defined as the dosage required to inhibit tumor cell growth by 50%) is listed for each cell line.

[2] = test system: BXPC-3 (pancreas) cancer cell line; assay: In vitro growth inhibition (SRB), BXPC-3; format: cell-based, human; conditions: 48 hours; for GI50: Homo sapiens
Procedure: as §1, §2

[3] = test system: MHEC-5T hemangioendothelioma tumor; assay: Inhibition of tumor blood flow, Fluorescent Bead Assay; format: in vivo, SCID mice; conditions: 24 hours post-treatment, vessel area per tumor tissue area as percentage of control
Procedure: The antivascular effects of the chromene phosphate prodrug were assessed in tumor-bearing mice using a Fluorescent Bead Assay. A MHEC-5T hemangioendothelioma tumor model was established by subcutaneous injection of 0.5×10^6 cultured transformed cell murine myocardial vascular endothelial cell line (“MHEC5-T”) cells into the right flank of Fox Chase CB-17 Severe Combined Immunodeficient (“SCID”) mice. […] At 24 hours post-treatment, mice were injected intravenously with 0.25 ml of diluted FluoSphere beads (1:6 in physiological saline) in the tail vein, sacrificed after 3 minutes, and tumor was excised for cryosectioning. Tumor cryosections at a thickness of 8 um were directly examined using quantitative fluorescent microscopy. Blood vessels were indicated by blue fluorescence from injected beads. For quantification, image analysis of 3 sections from three tumors treated in each group were examined and vascular shutdown was expressed as vessel area (mm^2) per tumor tissue area (mm^2) as a percentage of the control (“% VAPM”).

[4] = test system: MCF-7 (breast) cancer cell line; assay: In vitro growth inhibition (SRB), MCF-7; format: cell-based, human; conditions: for GI50: Homo sapiens, MCF7, 48 hours
Procedure: as §1, §2

[5] = test system: DU-145 (prostate) cancer cell line; assay: In vitro growth inhibition (SRB), DU-145; format: cell-based, human; conditions: 48 hours; for GI50: Homo sapiens
Procedure: as §1, §2

[6] = test system: NCI-H460 (lung-NSC) cancer cell line; assay: In vitro growth inhibition (SRB), NCI-H460; format: cell-based, human; conditions: 48 hours; for GI50: Homo sapiens
Procedure: as §1, §2

P388 leukemia cell lines = assay: In vitro cytotoxicity (SRB) against P388 leukemia cell line; format: cell-based, mouse; conditions: 48 hours incubation
Procedure: as §1
Several compounds were evaluated for cytotoxic activity against […] P388 leukemia cell lines. […] These and additional compounds were evaluated in terms of growth inhibitory activity against several other human cancer cell lines including: central nervous system (“CNS”, SF-268), pancreas (BXPC-3), non-small cell lung cancer (“lung-NSC”, NCI-H460), breast (MCF-7), colon (KM20L2), ovarian (OVCAR-3), and prostate (DU-145). […]

[7] = test system: SF-268 (CNS) cancer cell line; assay: In vitro growth inhibition (SRB), SF-268; format: cell-based, human; conditions: 48 hours; for GI50: Homo sapiens
Procedure: as §1, §2

purified tubulin = assay: In vitro inhibition of tubulin polymerization; format: biochemical; conditions: purified bovine brain tubulin 1.5 mg/ml, 15 min preincubation at 37° C., GTP-induced, 350 nm
Procedure: IC50 values for tubulin polymerization were determined according to a previously described procedure (Bai et al., Cancer Research, 1996). Purified tubulin is obtained from bovine brain cells as previously described (Hamel and Lin, Biochemistry, 1984). Various amounts of inhibitor were preincubated for 15 minutes at 37° C. with purified tubulin. After the incubation period, the reaction was cooled and GTP was added to induce tubulin polymerization. Polymerization was then monitored in a Gilford spectrophotometer at 350 nm. The final reaction mixtures (0.25 ml) contained 1.5 mg/ml tubulin, 0.6 mg/ml microtubule-associated proteins (MAPs), 0.5 mM GTP, […], 4% DMSO and 0.1M 4-morpholineethanesulfonate buffer (MES, pH 6.4). IC50 is the amount of inhibitor needed to inhibit tubulin polymerization 50% with respect to the amount of […] that occurs in the absence of inhibitor.

| GI50 for Cell Line KM20L2 ([1]; 48 hours) [µg/mL] | GI50 for Cell Line BXPC-3 [2] [µg/mL] | GI50 for Cell Line MCF-7 ([4]; 48 hours) [µg/mL] | GI50 for Cell Line DU-145 [5] [µg/mL] | GI50 for Cell Line NCI-H460 [6] [µg/mL] | GI50 for Cell Line SF-268 [7] [µg/mL] | GI50 [1] [µg/mL] | GI50 [2] [µg/mL] | GI50 [4] [µg/mL] | GI50 [5] [µg/mL] | GI50 [6] [µg/mL] | GI50 [7] [µg/mL] | IC50 (purified tubulin) [µM] | Compound | % VAPM at 10 mg/kg dose ([3]; 10 mg/kg single i.p. dose) [%] | % VAPM at 100 mg/kg dose ([3]; 100 mg/kg single i.p. dose) [%] | ED50 for P-388 Cell Line (P388 leukemia cell lines) [µg/mL] |
| --- | --- | --- | --- | --- | --- | --- | --- | --- | --- | --- | --- | --- | --- | --- | --- | --- |
| 3.5 | 0.44 | 0.056 | 0.18 | 0.14 | 0.034 | – | – | – | – | – | – | – | 3-(3′,4′,5′-Trimethoxybezoyl)-7-methoxy-2H-chromene-phosphate salt [Compound 7] | 57 | 33 | 0.173 |
| – | – | – | – | – | – | 3.2 (≈ 8.59 µM) | 3.5 (≈ 9.4 µM) | 0.0055 (≈ 0.0148 µM) | 0.049 (≈ 0.132 µM) | 0.46 (≈ 1.24 µM) | 0.022 (≈ 0.0591 µM) | – | COc1ccc2c(c1O)OCC(C(=O)c1cc(OC)c(OC)c(OC)c1)=C2 [Compound 5, 3-(3′,4′,5′-Trimethoxybezoyl)-7-methoxy-8-hydroxy-2H-chromene] | – | – | – |
| – | – | – | – | – | – | 0.47 (≈ 1.32 µM) | 0.27 (≈ 0.758 µM) | 0.3 (≈ 0.842 µM) | 0.26 (≈ 0.73 µM) | 0.3 (≈ 0.842 µM) | 0.32 (≈ 0.898 µM) | – | COc1ccc2c(c1)OCC(C(=O)c1cc(OC)c(OC)c(OC)c1)=C2 [Compound 8, 3-(3′, 4′, 5′-Trimethoxybenzoyl)-7-methoxy-2H-chromene] | – | – | – |
| – | – | – | – | – | – | 2.3 (≈ 6.18 µM) | 0.27 (≈ 0.725 µM) | 0.069 (≈ 0.185 µM) | 0.16 (≈ 0.43 µM) | 0.32 (≈ 0.859 µM) | 0.45 (≈ 1.21 µM) | 1 to 4 | COc1cc2c(cc1O)C=C(C(=O)c1cc(OC)c(OC)c(OC)c1)CO2 [Compound 9, 3-(3′, 4′, 5′-Trimethoxybenzoyl)-6-hydroxy-7-methoxy-2H-chromene] | – | – | 0.25 |
